# Patent US20240083903A1, “ARYL ETHER COMPOUNDS AS TEAD MODULATORS” (Merck Sharp& Dohme LLC, priority 2021, published 2024)
# System: TEAD Reporter-MCF7 cell line
# Experiment: YAP/TEAD cellular activity assay: inhibition of TEAD-Luc activity in TEAD Reporter-MCF7 cell line
# Format: cell-based, human
# Conditions: Homo sapiens, MCF7, 24 h, TEAD Reporter-MCF7 cells, 24 hours incubation with compound, luciferase readout
# Method: YAP/TEAD Cellular Activity Assay
# Quantitation of Compound Potency on the Inhibition of TEAD-Luc Activity in TEAD Reporter-MCF7 Cell Line.
# The TEAD Reporter-MCF7 cell line containing the firefly luciferase gene under the control of TEAD responsive elements stably integrated into the human breast cancer cell line was purchased from BPS Bioscience (Cat #60618). The cells were cultured with complete culture medium ([…], 1 mM sodium pyruvate, 10% fetal bovine serum, 10 ng/mL insulin and 400 ug/mL G418 sulfate) prior to the assay. For the assay, the cells were harvested, resuspended in the complete culture medium without G418, and seeded into white solid bottom 384-well cell culture microplates in 25 uL with 10,000 cells per well. The plates were incubated at 37° C. in a CO2 incubator for 20-24 hours and the compounds were then transferred from Echo LDV plates directly into the 384-well white tissue culture plates with an Echo. The plates were incubated at 37° C. in a CO2 incubator for 24 hours and equal volume of ONE-Glo™ EX Luciferase reagent (Promega, Cat #E8150) was added. After mixing on a shaker at room temperature for 10 minutes, the luciferase activity was measured with an Envision. The percentage inhibition and EC50 values of compounds were calculated with Spotfire.
# Required Materials • 1. TEAD reporter-MCF-7 Cells (BPS Bioscience, #60618) • 2. Complete Cell Culture Medium (without selection antibiotics) • EMEM 89% (ATCC, #30-2003) • FBS 10% (Hyclone, #SH30088.03) • 1% Non essential amino acids (Gibco, • 1 mM sodium pyruvate (Gibco, • Pen/Strep, 1% (Gibco, #15140-122) • 10 ng/mL insulin (Sigma, #10516) • 3. Complete Cell Culture Medium (with selection antibiotics) • EMEM 89% (ATCC, #30-2003) • F1% Non essential amino acids (Gibco, • 1 mM sodium pyruvate (Gibco, • BS 10% (Hyclone, #SH30088.03) • 10 ng/mL insulin (Sigma, #10516) • 400 ug/mL G418 sulfate (Agilent, #200049-21) • 4. Miscellaneous tissue culture equipment and reagents. • 5. White solid 384-well tissue culture plate (Greiner, Cat #781080) • 6. One Glo EX luciferase assay system (Promega, #E8150)
# The following table tabulates the biological data disclosed for the current invention. The biological data was collected using the methodology described above. For each compound, TEAD-Luc EC50 values are listed in nanomolar (nM) concentration units.
row,Compound,EC50
1,"CNS(=O)(=O)c1ccc(Oc2ccc(C(F)(F)F)cc2)c(-c2cc3ccccn3n2)c1 [1-35, N-methyl-3-(pyrazolo[1,5-a]pyridin-2-y1)-4-[4-(trifluoromethyl)phenoxy]benzene-1-sulfonamide]",99.4 nM
2,"CNS(=O)(=O)c1ccc(Oc2ccc(C(F)(F)F)cc2)c(-c2cc3n(n2)CCCC3)c1 [1-36, N-methyl-3-(4,5,6,7-tetrahydropyrazolo[1,5-a]pyridin-2-yl)-4-[4-(trifluoromethyl)phenoxy]benzene-1-sulfonamide]",4.6 nM
3,"CNS(=O)(=O)c1ccc(Oc2ccc(C(F)(F)F)cc2)c(-c2ncn3c2CCCC3)c1 [1-37, N-methyl-3-(5,6,7,8-tetrahydroimidazo[1,5-a]pyridin-1-yl)-4-[4-(trifluoromethyl)phenoxy]benzene-1-sulfonamide]",414 nM
4,"CNS(=O)(=O)c1ccc(Oc2ccc(C(F)F)cc2)c(-c2cn3c(n2)CCC3)c1 [1-40, 4-[4-(difluoromethyl)phenoxy]-3-(6,7-dihydro-5H-pyrrolo[1,2-a]imidazol-2-yl)-N-methylbenzene-1-sulfonamide]",27 nM
5,"CNS(=O)(=O)c1ccc(Oc2ccc(C(F)(F)F)cc2)c(-c2cc3n(n2)CCN3)c1 [1-45, 3-(2,3-dihydro-1H-imidazo[1,2-b]pyrazol-6-yl)-N-methyl-4-[4-(trifluoromethyl)phenoxy]benzene-1-sulfonamide]",64.4 nM
6,"CNS(=O)(=O)c1ccc(Oc2ccc(F)cc2)c(-c2cnn3c2OCC3)c1 [1-46, 3-(2,3-dihydropyrazolo[5,1-b]oxazol-7-yl)-4-(4-fluorophenoxy)-N-methylbenzenesulfonamide]",1860 nM
7,"CNS(=O)(=O)c1ccc(Oc2ccc(Cl)cc2)c(-c2cnn3c2OCC3)c1 [1-47, 4-(4-chlorophenoxy)-3-(2,3-dihydropyrazolo[5,1-b]oxazol-7-yl)-N-methylbenzenesulfonamide]",104 nM
8,"CNS(=O)(=O)c1ccc(Oc2ccc(F)c(F)c2)c(-c2cnn3c2OCC3)c1 [1-48, 4-(3,4-difluorophenoxy)-3-(2,3-dihydropyrazolo[5,1-b]oxazol-7-yl)-N-methylbenzenesulfonamide]",1060 nM
9,"CNS(=O)(=O)c1ccc(Oc2cccc(C(F)(F)F)c2)c(-c2cnn3c2OCC3)c1 [1-49, 3-(2,3-dihydropyrazolo[5,1-b]oxazol-7-yl)-N-methyl-4-(3-(trifluoromethyl)phenoxy)benzenesulfonamide]",315 nM
10,"CNS(=O)(=O)c1ccc(Oc2ccc(C(C)=O)cc2)c(-c2cn3c(n2)CCC3)c1 [1-50, 4-(4-acetylphenoxy)-3-(6,7-dihydro-5H-pyrrolo[1,2-a]imidazol-2-yl)-N-methylbenzene-1-sulfonamide]",416 nM
11,"CNS(=O)(=O)c1ccc(Oc2ccc(C(F)(F)F)cc2)c(-c2cnn3c2OCC3)c1 [2-1, 3-(2,3-Dihydropyrazolo[5,1-b]oxazol-7-yl)-N-methyl-4-(4-(trifluoromethyl)phenoxy)benzenesulfonamide]",26 nM
12,"CNS(=O)(=O)c1ccc(Oc2ccc(C(F)(F)F)cc2)c(-c2ccc3cc(OC)nnc3c2)c1 [2-2, 3-(3-Methoxycinnolin-7-yl)-N-methyl-4-[4-(trifluoromethyl)phenoxy]benzene-1-sulfonamide]",50.5 nM
13,"CNS(=O)(=O)c1ccc(Oc2ccc(C(F)(F)F)cc2)c(-c2ccc(OC)c3nc(C(F)(F)F)[nH]c23)c1 [2-3, 3-[4-methoxy-2-(trifluoromethyl)-1H-benzimidazol-7-yl]-N-methyl-4-[4-(trifluoromethyl)phenoxy]benzene-1-sulfonamide]",4920 nM
14,"CNS(=O)(=O)c1ccc(Oc2ccc(C(F)(F)F)cc2)c(-c2ccc3c(c2)CC(=O)N3)c1 [2-4, N-methyl-3-(2-oxo-2,3-dihydro-1H-indol-5-yl)-4-[4-(trifluoromethyl)phenoxy]benzene-1-sulfonamide]",5480 nM
15,"CNS(=O)(=O)c1ccc(Oc2ccc(C(F)(F)F)cc2)c(-c2ccc3[nH]c(=O)[nH]c3c2)c1 [2-5, N-methyl-3-(2-oxo-2,3-dihydro-1H-benzimidazol-5-yl)-4-[4-(trifluoromethyl)phenoxy]benzene-1-sulfonamide]",4540 nM
16,"CNS(=O)(=O)c1ccc(Oc2ccc(C(F)(F)F)cc2)c(-c2ccc3scnc3c2)c1 [2-6, 3-(1,3-benzothiazol-5-yl)-N-methyl-4-[4-(trifluoromethyl)phenoxy]benzene-1-sulfonamide]",210 nM

row,Compound,EC50
1,"CNS(=O)(=O)c1ccc(Oc2ccc(C(F)(F)F)cc2)c(-c2cccc3cc[nH]c23)c1 [2-7, 3-(1H-indol-7-yl)-N-methyl-4-[4-(trifluoromethyl)phenoxy]benzene-1-sulfonamide]",5620 nM
2,"CNS(=O)(=O)c1ccc(Oc2ccc(C(F)(F)F)cc2)c(-c2ccc3c(c2)n(C)c(=O)n3C)c1 [2-8, 3-(1,3-dimethyl-2-oxo-2,3-dihydro-1H-benzimidazol-5-yl)-N-methyl-4-[4-(trifluoromethyl)phenoxy]benzene-1-sulfonamide]",198 nM
3,"CNS(=O)(=O)c1ccc(Oc2ccc(C(F)(F)F)cc2)c(-c2ccnc3[nH]ccc23)c1 [2-9, N-methyl-3-(1H-pyrrolo[2,3-b]pyridin-4-yl)-4-[4-(trifluoromethyl)phenoxy]benzene-1-sulfonamide]",2180 nM
4,"CNS(=O)(=O)c1ccc(Oc2ccc(C(F)(F)F)cc2)c(-c2cnc3[nH]ccc3c2)c1 [2-10, N-methyl-3-(1H-pyrrolo[2,3-b]pyridin-5-yl)-4-[4-(trifluoromethyl)phenoxy]benzene-1-sulfonamide]",2420 nM
5,"CNS(=O)(=O)c1ccc(Oc2ccc(C(F)(F)F)cc2)c(-c2ccc3c(c2)C(=O)N(CC2CC2)C3)c1 [2-11, 3-[2-(cyclopropylmethyl)-3-oxo-2,3-dihydro-1H-isoindol-5-yl]-N-methyl-4-[4-(trifluoromethyl)phenoxy]benzene-1-sulfonamide]",338 nM
6,"CNS(=O)(=O)c1ccc(Oc2ccc(C(F)(F)F)cc2)c(-c2ccc3ncn(C4CC4)c3c2)c1 [2-12, 3-(1-cyclopropyl-1H-benzimidazol-6-yl)-N-methyl-4-[4-(trifluoromethyl)phenoxy]benzene-1-sulfonamide]",2860 nM
7,"CNS(=O)(=O)c1ccc(Oc2ccc(C(F)(F)F)cc2)c(-c2cccc3nc(N)[nH]c23)c1 [2-13, 3-(2-amino-1H-benzimidazol-7-yl)-N-methyl-4-[4-(trifluoromethyl)phenoxy]benzene-1-sulfonamide]",3650 nM
8,"CNS(=O)(=O)c1ccc(Oc2ccc(C(F)(F)F)cc2)c(-c2ccc3c(c2)OCO3)c1 [2-14, 3-(2H-1,3-benzodioxol-5-yl)-N-methyl-4-[4-(trifluoromethyl)phenoxy]benzene-1-sulfonamide]",247 nM
9,"CNS(=O)(=O)c1ccc(Oc2ccc(C(F)(F)F)cc2)c(-c2ccc3c(cnn3C)c2)c1 [2-15, N-methyl-3-(1-methyl-1H-indazol-5-yl)-4-[4-(trifluoromethyl)phenoxy]benzene-1-sulfonamide]",336 nM
10,"CNS(=O)(=O)c1ccc(Oc2ccc(C(F)(F)F)cc2)c(-c2cnn3c2CCCC3)c1 [2-16, N-methyl-3-(4,5,6,7-tetrahydropyrazolo[1,5-a]pyridin-3-yl)-4-[4-(trifluoromethyl)phenoxy]benzene-1-sulfonamide]",631 nM
11,"CNS(=O)(=O)c1ccc(Oc2ccc(C(F)(F)F)cc2)c(-c2cnn3c2OCC(C)C3)c1 (stereo not shown) [2-17, N-methyl-3-(6-methyl-6,7-dihydro-5H-pyrazolo[5,1-b][1,3]oxazin-3-yl)-4-[4-(trifluoromethyl)phenoxy]benzene-1-sulfonamide]",590 nM
12,"CNS(=O)(=O)c1ccc(Oc2ccc(C(F)(F)F)cc2)c(-c2cnc3c(c2)OCCN3C)c1 [2-18, N-methyl-3-(4-methyl-3,4-dihydro-2H-pyrido[3,2-b][1,4]oxazin-7-yl)-4-[4-(trifluoromethyl)phenoxy]benzene-1-sulfonamide]",606 nM
13,"CNS(=O)(=O)c1ccc(Oc2ccc(C(F)(F)F)cc2)c(-c2cncc3ccccc23)c1 [2-19, 3-(isoquinolin-4-yl)-N-methyl-4-[4-(trifluoromethyl)phenoxy]benzene-1-sulfonamide]",8860 nM
14,"CNS(=O)(=O)c1ccc(Oc2ccc(C(F)(F)F)cc2)c(-c2cccc3cnccc23)c1 [2-20, 3-(isoquinolin-5-yl)-N-methyl-4-[4-(trifluoromethyl)phenoxy]benzene-1-sulfonamide]",4780 nM
15,"CNS(=O)(=O)c1ccc(Oc2ccc(C(F)(F)F)cc2)c(-c2cc3ccc(C)nc3cc2OC)c1 [2-21, 3-(7-methoxy-2-methylquinolin-6-yl)-N-methyl-4-[4-(trifluoromethyl)phenoxy]benzene-1-sulfonamide]",9780 nM
